# Experimental data published in publication PMC9944328 (Nature Communications, 2023).
# Where “and” joins values, the source holds several entries; their conditions need not be identical. Identical values can stand only once.
# Biological target: SSTR2 (Homo sapiens, UniProt P30874)
# Assay: NanoBiT β-arrestin 1 recruitment assay, HEK293 (SSTR2 wild-type);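 for Best-fit Bottom: percent of maximal wild-type SSTR2 response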;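 for Best-fit Top: percent of maximal wild-type SSTR2 response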;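 for Bottom (best-fit): percent of maximal wild-type response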;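 for Span (best-fit value): percent of maximal wild-type response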;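 for Top (best-fit value): percent of maximal wild-type response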
# Type: cell-based
# Design: Human full-length SSTR wild-type and mutant vectors were C-terminally fused; expressed in transfected cells; host or cells: HEK293; Best-fit values Bottom / Best-fit values Top / Best-fit values Span / Best-fit Bottom / Best-fit Top / Best-fit Span: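 percent of maximal wild-type SSTR2 response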
# Settings: for β-arrestin recruitment: compared with octreotide, Fig. 1c
# Method: The NanoBiT β-arrestin 1 recruitment assays were carried out according to the method described previously. […] Human full-length SSTR wild-type and mutant vectors were C-terminally fused with a 15-amino acid flexible linker and the small fragment (SmBiT). HEK293 cells were seeded into six-well microplates at a density of 1.0 × 10^6 cells/well and cultured for 24 h at 37 °C with 5% CO2. After that, cells were co-transfected with pcDNA3.1+ vectors encoding SSTR wild-type or mutants and human β-arrestin 1. After transfecting for 24 h, the transfected cells were suspended and seeded into white 96-well plates, and then cultured at 37 °C overnight. After that the medium in each well was exchanged for 90 μl of 0.01% bovine serum albumin containing 20 μl of 50 μM coelenterazine h (Carbosynth) diluted in the HBSS assay buffer and incubated for 40 min at room temperature. Then, ligands diluted in the assay buffer was added to each well and the luminescence intensity was measured using the Synergy H1 microplate reader and detected at room temperature in a time period. All data presented are means of at least three independent experiments.
# [1] = SSTR2-WT control of I284A-1, T194A-1, I195A-3, L99A-3, Q102A-1
# [2] = SSTR2-WT control of I284A-2/-3, T194A-2/-3, L99A-1/-2, Q102A-3
# Sequence of SSTR2 (P30874 whole entry): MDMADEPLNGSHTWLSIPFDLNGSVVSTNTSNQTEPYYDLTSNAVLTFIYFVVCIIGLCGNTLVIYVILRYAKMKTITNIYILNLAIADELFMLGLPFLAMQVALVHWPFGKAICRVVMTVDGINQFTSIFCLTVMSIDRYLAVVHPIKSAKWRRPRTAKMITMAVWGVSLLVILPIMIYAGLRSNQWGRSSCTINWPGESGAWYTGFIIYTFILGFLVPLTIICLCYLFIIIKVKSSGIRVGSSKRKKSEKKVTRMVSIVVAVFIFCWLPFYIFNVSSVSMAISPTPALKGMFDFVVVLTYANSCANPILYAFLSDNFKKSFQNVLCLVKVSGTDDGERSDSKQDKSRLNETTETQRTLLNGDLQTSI
# Sequence of SSTR2 (P49407 whole entry partner): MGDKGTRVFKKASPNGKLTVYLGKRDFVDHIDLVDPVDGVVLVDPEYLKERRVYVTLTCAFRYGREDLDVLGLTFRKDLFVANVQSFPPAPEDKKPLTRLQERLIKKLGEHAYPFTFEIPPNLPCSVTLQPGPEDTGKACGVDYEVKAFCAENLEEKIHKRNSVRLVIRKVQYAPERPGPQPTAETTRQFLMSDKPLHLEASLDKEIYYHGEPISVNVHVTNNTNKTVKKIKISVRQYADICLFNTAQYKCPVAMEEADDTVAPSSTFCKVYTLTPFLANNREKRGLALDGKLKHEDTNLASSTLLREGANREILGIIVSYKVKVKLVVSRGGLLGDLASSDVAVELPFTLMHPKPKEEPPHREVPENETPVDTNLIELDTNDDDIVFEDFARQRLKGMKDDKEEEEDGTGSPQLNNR
compound,measurement,setting,value
N#Cc1cccc(-c2ccc3ncc(-c4cc(F)cc(F)c4)c(N4CCC(N)CC4)c3c2)c1O [paltusotine],EC50,"Best-fit EC50, SSTR2-WT control of I284A-1, T194A-1, I195A-3, L99A-3",0.42 µM
same,EC50,"Best-fit EC50, SSTR2-WT control of I284A-2/-3, T194A-2/-3, L99A-1/-2",0.455 µM
same,EC50,"Best-fit EC50, SSTR2-WT-1 control of I195A-1",0.306 µM
same,EC50,"Best-fit EC50, SSTR2-WT-1 control of Y50A-1",0.216 µM
same,EC50,"Best-fit EC50, SSTR2-WT-2 control of I195A-2",0.295 µM
same,EC50,"Best-fit EC50, SSTR2-WT-2 control of Y50A-2",0.272 µM
same,EC50,"Best-fit EC50, SSTR2-WT-3 control of Y50A-3",0.306 µM
same,EC50,"EC50 (best-fit value), SSTR2-WT, run WT-1",0.455 µM and 0.42 µM and 0.141 µM and 1.27 µM and 0.292 µM
same,EC50,"EC50 (best-fit value), SSTR2-WT, run WT-2",0.455 µM and 0.399 µM and 0.131 µM and 0.141 µM and 0.613 µM
same,EC50,"EC50 (best-fit value), SSTR2-WT, run WT-3",0.726 µM and 0.216 µM and 0.292 µM and 0.131 µM and 0.538 µM and 0.455 µM
same,EC50,"EC50 (best-fit), WT-1 (D122A set)",0.42 µM
same,EC50,"EC50 (best-fit), WT-1 (F127A set)",0.307 µM
same,EC50,"EC50 (best-fit), WT-1 (I130A set)",0.292 µM
same,EC50,"EC50 (best-fit), WT-1 (Q102A set)",0.42 µM
same,EC50,"EC50 (best-fit), WT-1 (Q126A set)",0.306 µM
same,EC50,"EC50 (best-fit), WT-1 (V103A set)",0.306 µM
same,EC50,"EC50 (best-fit), WT-2 (D122A set)",0.399 µM
same,EC50,"EC50 (best-fit), WT-2 (F127A set)",0.272 µM
same,EC50,"EC50 (best-fit), WT-2 (I130A set)",0.141 µM
same,EC50,"EC50 (best-fit), WT-2 (Q102A set)",0.339 µM
same,EC50,"EC50 (best-fit), WT-2 (Q126A set)",0.455 µM
same,EC50,"EC50 (best-fit), WT-2 (V103A set)",0.295 µM
same,EC50,"EC50 (best-fit), WT-3 (D122A set)",0.455 µM
same,EC50,"EC50 (best-fit), WT-3 (F127A set)",0.292 µM
same,EC50,"EC50 (best-fit), WT-3 (Q102A set)",0.455 µM
same,EC50,"EC50 (best-fit), WT-3 (Q126A set)",0.455 µM
same,EC50,"EC50 (best-fit), WT-3 (V103A set)",0.306 µM
same,EC50,"EC50 (β-arrestin1 recruitment), best-fit, WT-1 (SSTR2-WT set up beside each mutant)",0.42 µM and 0.455 µM and 0.529 µM
same,EC50,"EC50 (β-arrestin1 recruitment), best-fit, WT-2 (SSTR2-WT set up beside each mutant)",0.455 µM and 0.42 µM and 0.613 µM
same,EC50,"EC50 (β-arrestin1 recruitment), best-fit, WT-3 (SSTR2-WT set up beside each mutant)",0.42 µM and 0.538 µM
same,EC50,"EC50, β-arrestin recruitment, SSTR2 WT, n=6",0.406 ± 0.00562 µM
same,Emax,HEK293,100%
same,Best-fit Span,"SSTR2-WT control of I284A-1, T194A-1, I195A-3, L99A-3",106.9
same,Best-fit Bottom,[1],1.007
same,Best-fit LogEC50,[1],-6.376
same,Best-fit Top,[1],107.9
same,Best-fit Span,"SSTR2-WT control of I284A-2/-3, T194A-2/-3, L99A-1/-2",106.4
same,Best-fit Bottom,[2],0.9805
same,Best-fit LogEC50,[2],-6.342
same,Best-fit Top,[2],107.4
same,Best-fit Bottom,SSTR2-WT-1 control of I195A-1,0.5008
same,Best-fit LogEC50,SSTR2-WT-1 control of I195A-1,-6.514
same,Best-fit Span,SSTR2-WT-1 control of I195A-1,104.2
same,Best-fit Top,SSTR2-WT-1 control of I195A-1,104.7
same,Best-fit Bottom,SSTR2-WT-1 control of Y50A-1,-1.342
same,Best-fit LogEC50,SSTR2-WT-1 control of Y50A-1,-6.666
same,Best-fit Span,SSTR2-WT-1 control of Y50A-1,105.2
same,Best-fit Top,SSTR2-WT-1 control of Y50A-1,103.8
same,Best-fit Bottom,SSTR2-WT-2 control of I195A-2,0.4349
same,Best-fit LogEC50,SSTR2-WT-2 control of I195A-2,-6.531
same,Best-fit Span,SSTR2-WT-2 control of I195A-2,102.7
same,Best-fit Top,SSTR2-WT-2 control of I195A-2,103.1
same,Best-fit Bottom,SSTR2-WT-2 control of Q102A-2,-0.0463
same,Best-fit LogEC50,SSTR2-WT-2 control of Q102A-2,-6.469
same,Best-fit Bottom,SSTR2-WT-2 control of Y50A-2,-1.812
same,Best-fit LogEC50,SSTR2-WT-2 control of Y50A-2,-6.566
same,Best-fit Span,SSTR2-WT-2 control of Y50A-2,107.5
same,Best-fit Top,SSTR2-WT-2 control of Y50A-2,105.7
same,Best-fit Bottom,SSTR2-WT-3 control of Y50A-3,-2.538
same,Best-fit LogEC50,SSTR2-WT-3 control of Y50A-3,-6.515
same,Best-fit Span,SSTR2-WT-3 control of Y50A-3,108.6
same,Best-fit Top,SSTR2-WT-3 control of Y50A-3,106.1
same,Span (best-fit value),"SSTR2-WT, run WT-1",106.4 and 106.9 and 102.6 and 115.9 and 106
same,Top (best-fit value),"SSTR2-WT, run WT-1",107.4 and 107.9 and 101.5 and 113.5 and 105.5
same,Span (best-fit value),"SSTR2-WT, run WT-2",106.4 and 103.6 and 103.9 and 102.6 and 106.8
same,Top (best-fit value),"SSTR2-WT, run WT-2",107.4 and 106.9 and 102.6 and 101.5 and 107.6
same,Span (best-fit value),"SSTR2-WT, run WT-3",112.3 and 105.2 and 106 and 103.9 and 104.9 and 106.4
same,Top (best-fit value),"SSTR2-WT, run WT-3",109 and 103.8 and 105.5 and 102.6 and 107.1 and 107.4
same,β-arrestin recruitment,SSTR2 WT,lower efficacy of β-arrestin recruitment
same,β-arrestin recruitment,"SSTR2 WT, listed as Paltusotine",lower β-arrestin recruitment compared with octreotide
same,Bottom (best-fit),WT-1 (D122A set),1.007
same,LogEC50 (best-fit),WT-1 (D122A set),-6.376
